# PubChem BioAssay AID788 (SRMLSC, 2007)
# The source made the active and inactive calls. The rule behind the calls is not given here.
# What was measured:
# [1] = system: S. cerevisiae vps1Δ apl2Δ growth inhibition, dose response; experiment: vps1Δ apl2Δ double mutant yeast growth inhibitors – S. cerevisiae, background strain comparison, post-Golgi transport modulator project, dose response (AID 788)
# [2] = system: S. cerevisiae wild-type background strain growth inhibition; experiment: as above; conditions: S. cerevisiae vps1Δ apl2Δ growth inhibition, dose response; measured here: wild-type background strain growth
Structure (SMILES),IC50 [1],IC50 [2] [µM]
Cn1c2ccc(Cl)cc2c2nc3ccccc3nc21,> 10 µM (inactive),> 10
COCCCn1c2nc3ccccc3nc2c2c(=O)n(-c3ccccc3OC)cnc21,> 10 µM (inactive),> 10
CS(=O)(=O)N1CCC(C(=O)NCCN2CCN(Cc3ccccc3)CC2)CC1,> 10 µM (inactive),> 10
Cc1cc([N+](=O)[O-])c(-c2ccc(/C=N/n3cnnc3)o2)cc1Cl,0.39 µM (inactive),0.134
Cc1ccc(C2(C(F)(F)F)N=C3Sc4cc(C)cc(C)c4N3C(=O)N2)cc1 (configuration not stated),1.5 µM (inactive),1.08
O=C(OCn1ncc(Br)c(Br)c1=O)c1ccc(F)cc1,5.12 µM,5.38
N=c1nc(N)nc2n1NC(c1ccc(F)cc1)=CS2,> 10 µM (inactive),> 10
CN1C(=O)/C(=C/c2cccn2-c2ccc3ccccc3c2)C(=O)NC1=S,10.4 µM (inactive),6.58
COc1ccc(Cl)cc1NC(=O)C(C)N1CCN(C/C=C/c2ccccc2)CC1 (configuration not stated),9.01 µM,15
CCCc1cc(NCCCCO)n2c(nc3ccccc32)c1C#N,> 10 µM (inactive),> 10
CCCCOc1ccc(-c2ncc(C(=O)O)c(C)n2)cc1,> 10 µM (inactive),> 10
O=C(COc1ccc(Cl)cc1Cl)N1CCN(C/C=C/c2ccccc2)CC1,1.46 µM,7.14
O=C(CC(=O)c1cc(Cl)ccc1O)c1ccccc1,9.8 µM,12.7
CCc1ccc(N(C(=O)c2csnn2)C(C(=O)NC(C)(C)C)c2ccncc2)cc1 (configuration not stated),> 10 µM (inactive),> 10
COc1ccccc1N1CCN(Cc2ccccc2F)CC1,> 10 µM (inactive),> 10
COc1ccc(C(=O)c2c(C(F)(F)F)oc3c2C(=O)c2ccccc2C3=O)cc1,22.7 µM (inactive),2.32
COc1ccc(C2C3=C(CCCC3=O)Nc3nc(-c4cc(OC)c(OC)c(OC)c4)nn32)cc1OC (configuration not stated),> 10 µM (inactive),> 10
O=C(O)c1cc(-c2ccc(/C=N/Nc3ccc(Cl)cc3)o2)ccc1Cl,10.9 µM,16.4
CC(C)Oc1ccc(/C(O)=C2/C(=O)C(=O)N(CCN(C)C)C2c2ccco2)cc1 (configuration not stated),> 10 µM (inactive),> 10
CC(C)COC(=O)c1ccc2c(c1O)C(=O)c1ccccc1C2=O,> 10 µM (inactive),> 10
CCN(CC)CCCN(Cc1cc2cc3c(cc2[nH]c1=O)OCCO3)C(=O)Nc1ccc(F)cc1,> 10 µM (inactive),> 10

Structure (SMILES),IC50 [1],IC50 [2] [µM]
CC1CCCN(CCOCCOc2ccc(Cl)cc2Br)C1 (configuration not stated),2.5 µM,> 10
Cc1ccc(CN2CCN(/N=C/c3cc(Br)ccc3O)CC2)cc1,4.32 µM,> 10
Nc1c(C(=O)OCC2CCCO2)c2nc3ccccc3nc2n1-c1ccc2c(c1)OCCO2 (configuration not stated),> 10 µM (inactive),> 10
COc1ccc2c(c1)C(C)=CC(C)(C)N2C(=O)CSc1nnc(-c2ccc(C)cc2)o1,> 10 µM (inactive),> 10
Fc1ccc(-c2noc(C3CCN(Cc4cccnc4)CC3)n2)cc1,6.05 µM,> 10
Cc1cc(C)n2nc(C(=O)NCc3ccccc3)cc2n1,> 10 µM (inactive),> 10
CCOC(=O)C(NC(C)=O)(Nc1ccc(S(=O)(=O)Nc2onc(C)c2C)cc1)C(F)(F)F (configuration not stated),> 10 µM (inactive),> 10
CCc1cc2c(=O)c(Oc3ccccc3F)c(C)oc2c(CN(C)C)c1O,> 10 µM (inactive),> 10
CCOC(=O)c1cccnc1SCc1cc(=O)n2ccccc2n1,> 10 µM (inactive),> 10
CCOC(=O)c1c(-n2c(C)cc(C=C3C(=O)NC(=S)NC3=O)c2C)sc2c1CCCC2,> 10 µM (inactive),11.5
COc1cc(CN2CCN(c3ccc(C)cc3)CC2)cc([N+](=O)[O-])c1O,> 10 µM (inactive),> 10
CCOCCCNC(=O)C1CCN(C(=O)N(C)C)CC1,> 10 µM (inactive),> 10
COC(=O)c1ccc(CSc2nnc(NC(C)C)s2)cc1,> 10 µM (inactive),> 10
COc1ccc(Nc2nc(N)nc(CSc3nnc(N)s3)n2)cc1,> 10 µM (inactive),> 10
CC(C)c1ccc(C2C3CSCC=C3C(C#N)=C(N)C2(C#N)C#N)cc1 (configuration not stated),2.08 µM (inactive),0.843
CCOC(=O)c1ccc(NC(=O)c2cn(-c3ccccc3)nc2-c2ccncc2)cc1,19.1 µM (inactive),11.5
ON=Cc1cccn1-c1ccccc1,> 10 µM (inactive),> 10
Cc1ccc(N2CCN(S(=O)(=O)N3CCCCCC3)CC2)cc1Cl,> 10 µM (inactive),> 10
O=C(OCn1ncc(Cl)c(Cl)c1=O)c1ccccc1Cl,15.5 µM,16.6
COc1ccc2oc(=O)c(-c3nnc(NCc4ccco4)s3)cc2c1,> 10 µM (inactive),> 10
O=C(OCn1ncc(Cl)c(Cl)c1=O)c1cccc(C(F)(F)F)c1,6 µM (inactive),3.51

Structure (SMILES),IC50 [1],IC50 [2] [µM]
FC(F)(F)COc1nc(N2CCCCC2)nc(N2CCNCC2)n1,> 10 µM (inactive),> 10
Cc1cccnc1Nc1nc(-c2ccccn2)cs1,22.7 µM,> 10
OC(Cn1ccnc1)c1ccc(Cl)cc1Cl (configuration not stated),> 10 µM (inactive),> 10
Nc1ccc(Oc2ccc3nc(-c4ccccc4)c(-c4ccccc4)nc3c2)cc1,1.2 µM (inactive),1.21
CCOC(=O)Cc1c(C)c2ccc(N(CC)CC)cc2oc1=O,> 10 µM (inactive),> 10
O=C(c1ccco1)N1CCN=C1SCc1cccnc1,> 10 µM (inactive),> 10
CC(=O)c1ccc(N2CCN(C(=O)c3ccc(Br)cc3)CC2)c(F)c1,0.628 µM,6.58
COc1ccc(NC(=O)c2ccc(CN3CCN(c4ccccc4)CC3)cc2)cc1,> 10 µM (inactive),> 10
Clc1ccc(-c2cnc(Oc3ccccc3)nc2)cc1,> 10 µM (inactive),> 10
Cc1ccn2cc(-c3nonc3C)cc2c1,> 10 µM (inactive),> 10
Cc1cc(C)c2c(c1)/C(=C/C(=O)c1ccc(Br)s1)C(=O)N2,2.73 µM (inactive),1.42
O=C1c2cccc3c([N+](=O)[O-])ccc(c23)C(=O)N1c1ccc(Cl)cn1,18 µM (inactive),6.08
N#CC1=C(N)NC(SCc2ccc(F)cc2)=C(C#N)C12CCCCC2,4.84 µM,16.3
c1ccc(Nc2cc(-c3ccccc3)nc3ncnn23)cc1,6.29 µM,> 10
CCOC(=O)c1cc2c(ccn2C)n1CC(=O)N1CCN(c2ccccc2OC)CC1,> 10 µM (inactive),> 10
Cc1nnc(-c2cccc(Br)c2)c2cn(-c3ccccc3Cl)nc12,2.73 µM,25.9
Cc1ccc(S(=O)(=O)N2CCN(C3CCN(Cc4ccccc4)CC3)CC2)cc1,24.5 µM,> 10
c1ccc(-c2ccc(-c3cnc4n3CCCCC4)cc2)cc1,> 10 µM (inactive),> 10
CCOC(=O)c1c(NC(=O)CN2CCCCC2)sc2c1CCC(C=O)=C2Cl,> 10 µM (inactive),> 10
CC1CN(CC(O)COc2ccc(C(C)C)cc2)CC(C)O1 (configuration not stated),15.2 µM,> 10
CCc1ccc(C(=O)/C=C/c2ccc([N+](=O)[O-])o2)cc1,23.1 µM (inactive),20.7

Structure (SMILES),IC50 [1],IC50 [2] [µM]
COc1ccc2nc(NCCCNC(=O)c3cc(OC)c(OC)c(OC)c3)c(C#N)cc2c1,> 10 µM (inactive),> 10
Cc1sc(NC(=O)c2ccco2)c(C(c2cccnc2)N2CCC(C)CC2)c1C (configuration not stated),9.99 µM (inactive),5.77
Cc1cc(=O)oc2c(CN3CCCCC3)c(O)c(Cl)cc12,> 10 µM (inactive),> 10
O=[N+]([O-])c1ccc(N2CCN(S(=O)(=O)c3ccc(Cl)cc3)CC2)cc1NCc1cccnc1,> 10 µM (inactive),> 10
O=C(Nc1nnc(C2CC2)o1)c1ccc(S(=O)(=O)N2CCCc3ccccc32)cc1,> 10 µM (inactive),3.17
COC(=O)C1=CN(CCCN2CCCC2=O)C=C(C(=O)OC)C1c1ccccc1C(F)(F)F,> 10 µM (inactive),> 10
O=S(=O)(NCC(c1cccnc1)N1CCN(c2ccccc2)CC1)c1cccs1 (configuration not stated),23 µM,> 10
O=C(C1COc2ccccc2O1)N1CCN(Cc2ccc3c(c2)OCO3)CC1 (configuration not stated),10.4 µM,> 10
Cc1nn(-c2ccccn2)c(C)c1Oc1ccccc1O,> 10 µM (inactive),> 10
COc1ccc(NC(=S)NC(NC(=O)c2ccc(Cl)cc2Cl)C(Cl)(Cl)Cl)c([N+](=O)[O-])c1 (configuration not stated),> 10 µM (inactive),> 10
O=C(CCC(=O)OCC(=O)c1ccc(F)cc1)NC1CCCCC1,> 10 µM (inactive),> 10
Clc1ccc(-c2n[nH]c3c2CCC3)cc1Cl,2.65 µM (inactive),1.81
C/C(CCC12CC3CC(CC(C3)C1)C2)=N\NC(N)=S,1.65 µM,5.28
CCOC(=O)N1CCN(c2ccc(S(=O)(=O)N(Cc3ccccc3)Cc3ccccc3)cn2)CC1,> 10 µM (inactive),> 10
O=Cc1cc2ccccc2nc1SCc1ccc(Cl)cc1,> 10 µM (inactive),> 10
Cc1ccc(-c2csc3nnc(SCC(=O)Nc4cccc(C)n4)n23)cc1,> 10 µM (inactive),> 10
C/C(=N\N=C(/N)SC1CC(=O)N(c2ccc(Cl)c(Cl)c2)C1=O)c1cccs1 (configuration not stated),5.05 µM,5.98
NC(=O)c1ccsc1NC(=O)c1nc(-c2ccccc2)n(-c2ccccc2)n1,> 10 µM (inactive),> 10
